{
  "source": "patent US11103562B2",
  "about": "“Composition comprising alkaline phosphatase for use in the treatment of arthritides” (AMRIF BV, priority 2017, dated 2021)",
  "key": {"[1]": {"tested_on": "ED1+ and ED2+ synovial macrophages", "assay": "Synovial macrophage infiltration (ED1/ED2 immunohistochemistry) in knees of rats with mBSA antigen-induced arthritis", "assay_type": "in vivo, rat", "experimental": "(§1) Experiments were performed using a rat model for RA as published by Chandruputla et al. (BioMed Int, 2015) to show the effects of recombinant human alkaline phosphatase (hRESCAP) on RA. hRESCAP was compared with MTX used as a positive control. The antigen-induced rat model uses two subcutaneous immunizations with a mixture of methylated bovine serum albumin (mBSA), CFA (complete Freund's adjuvant antigen) and CBP (custom Bordetella pertussis antigen) and intra-articular injections of mBSA on one side knee and saline (negative control) on the counter knee. Immunohistochemical (IHC) analysis specifically focussed on infiltration with macrophages and knee swelling is followed over time after therapeutic treatment with MTX, or hRESCAP.\n(§2) In the rat model, RA is induced in the right knee (RA knee), the contralateral left knee serves as a internal control (control knee). The model allows various options for therapeutic interventions, either before intra-articular injections or during boosts injections with mBSA. Two hours prior to AP administration, rats received a dose of levamisole (50 mg/kg, s.c.). For comparison, arthritic rats received treatment with methotrexate (1 mg/kg, i.p.).\nAt the end of the experiment, rats were sacrificed and knees were decalcified and processed for IHC analysis of synovial macrophage infiltration, including 2 rat macrophage antibodies; ED1 (homolog of human CD68) and ED2 (homolog of human CD163, a proposed marker for human M2 anti-inflammatory macrophages). IHC analysis of ED1 and ED2 macrophages was performed in multiple quadrants of synovial tissue, as described by Chandruputla et al (BioMed Int, 2015). Macrophage counting included synovial lining layer (SL 1-10) and synovial sublining layers (SL 1-20).\n(§3) All rats (except healthy) were immunized and arthritis was induced via 1× or 4× intra-articular (i.a) mBSA injections, 4 or 5 days apart in the arthritic (right) knee, the contralateral (left, non-arthritic) knee serving as control knee. For therapeutic interventions, AP (human recombinant placenta AP, TNO, Zeist, The Netherlands) was administered subcutaneously (s.c.) at a dose of 700 U/kg (≈200 μg), MTX (VU University Medical Centers' Pharmacy) was administered intra-peritoneal (i.p.) at two dosages: 0.3 mg/kg (low dose) and 1.0 mg/kg (high dose). The rats were divided in 8 groups, based on different treatments and treatment schedules. In a prophylactic setting, two rats received AP twice prior to intra-articular (i.a.) arthritis induction and four rats received AP twice prior to intra-articular and 4× PBS in between i.a. injections. In the treatment groups, arthritic rats were administered AP twice or 4× after arthritis induction, either as standalone therapy or in combination with low or high dose MTX. Control rats received 500 μL of PBS (i.p.). […] At the end of study, all rats were sacrificed and tissues were excised for further processing and various analyses.\nThe arthritic and contralateral knees from all rats were dissected in toto and fixed for 7 days at 4° C. in 10% freshly made paraformaldehyde in PBS with 2% sucrose (pH=7.3) prior to decalcification in osteosoft (101728, Merck, Germany) for ˜2.5 weeks at room temperature. Thereafter, knees were embedded in paraffin. Sections of 5 μm were cut through the centre of the joint in longitudinal direction and stained with haematoxylin and eosin (HE) to assess the degree of inflammation in synovial tissue. Liver and spleen sections from all rats were dissected and fixed in 4% paraformaldehyde for 24 h before embedding in paraffin. Sections of 5 μm were cut and stained initially with HE and then for macrophages Staining for macrophages with ED1 (homologous to human CD68), and ED2 (homologous to human CD163, a marker for M2 anti-inflammatory macrophages), or isotype control antibody was performed. Images were captured using a Leica 4000B microscope and Leica digital camera DC500 (Microsystems B. V. Rijswijk, The Netherlands). […]"}, "[2]": {"tested_on": "arthritic rats", "assay": "Knee swelling in rats with mBSA antigen-induced arthritis", "assay_type": "in vivo, rat", "experimental": "as §1, §2, §3"}, "[3]": {"assay": "Tolerability of therapeutic interventions in arthritic rats", "assay_type": "in vivo", "experimental": "as §3"}, "[4]": {"tested_on": "macrophages", "conditions": "rat, in vivo", "protocol": "At the end of the treatment period, arthritic rats receiving 4× AP, 4× AP/low dose MTX, 4× AP/high dose MTX treatment, and untreated rats, were administered with [^18F]fluoro-PEG-folate tracer. Sixty minutes after tracer administration, rats were sacrificed. Low and high dose MTX treated arthritic rats were sacrificed without tracer administration. Upon sacrificing, all rats were excised and knees, blood and various internal organs were collected, rinsed, dipped dry, weighed and the amount of radioactivity determined using an LKB 1282 Compugamma CS gamma counter (LKB, Wallac, Turku, Finland). Results for tracer uptake in the various tissues were expressed as percentage of the injected dose per gram tissue (%ID/g)."}, "[5]": {"conditions": "cited from earlier work; for plasma residence time: in vivo"}},
  "note": "Entries after “also recorded” stand apart in the source; their conditions may differ.",
  "data": [
    {"molecule": "CN(Cc1cnc2nc(N)nc(N)c2n1)c1ccc(C(=O)N[C@@H](CCC(=O)O)C(=O)O)cc1", "note": "[MTX, Methotrexate, reference compound]", "values": [
      {"measurement": "effect of the two MTX doses on the number of ED1 macrophages in the arthritic knee", "setting": "[1]; MTX 0.3 mg/kg versus 1.0 mg/kg", "value": "identical effect"},
      {"measurement": "ED1+ synovial macrophage infiltration in arthritic knee (in words)", "setting": "[1]; therapeutic treatment, 4× after first i.a. and in between boosts, AP 700 U/kg, MTX 1 mg/kg", "value": "even more reduced macrophage ED1+ counts; also recorded: very much reduced"},
      {"measurement": "swelling of the mBSA-injected right knee", "setting": "[2]; prophylactic and therapeutic AP treatment or MTX treatment, versus positive control", "value": "Reduced swelling"},
      {"measurement": "swelling of the non-treated left knee", "setting": "[2]; versus positive control treatment", "value": "swelling is reduced"},
      {"measurement": "changes in body weight", "setting": "[3]", "value": "nor were significant changes in the body weight observed"}
    ]},
    {"molecule": "[^18F]fluoro-PEG-folate [reference compound]", "values": [
      {"measurement": "clearance of the tracer from plasma", "setting": "[4]", "value": "rapidly cleared from plasma"}
    ]},
    {"molecule": "intestinal isoenzyme: intestinal alkaline phosphatase isoenzyme, tissue specific ectophosphatase (protein, UniProt P09923 20-503, looked up) Intestinal-type alkaline …: VIPAEEENPAFWNRQAAEALDAAKKLQPIQKVAKNLILFLGDGLGVPTVTATRILKGQKNGKLGPETPLAMDRFPYLALSKTYNVDRQVPDSAATATAYLCGVKANFQTIGLSAAARFNQCNTTRGNEVISVMNRAKQAGKSVGVVTTTRVQHASPAGTYAHTVNRNWYSDADMPASARQEGCQDIATQLISNMDIDVILGGGRKYMFPMGTPDPEYPADASQNGIRLDGKNLVQEWLAKHQGAWYVWNRTELMQASLDQSVTHLMGLFEPGDTKYEIHRDPTLDPSLMEMTEAALRLLSRNPRGFYLFVEGGRIDHGHHEGVAYQALTEAVMFDDAIERAGQLTSEEDTLTLVTADHSHVFSFGGYTLRGSSIFGLAPSKAQDSKAYTSILYGNGPGYVFNSGVRPDVNESESGSPDYQQQAAVPLSSETHGGEDVAVFARGPQAHLVHGVQEQSFVAHVMAFAACLEPYTACDLAPPACTTD", "values": [
      {"measurement": "plasma residence time", "setting": "[5]", "value": "short plasma residence time"}
    ]},
    {"molecule": "placental ALP: human placental alkaline phosphatase isoenzyme, fully glycosylated tissue specific ectophosphatase (native or recombinant) (protein, UniProt P05187 23-506, looked up) Alkaline phosphatase, …: IIPVEEENPDFWNREAAEALGAAKKLQPAQTAAKNLIIFLGDGMGVSTVTAARILKGQKKDKLGPEIPLAMDRFPYVALSKTYNVDKHVPDSGATATAYLCGVKGNFQTIGLSAAARFNQCNTTRGNEVISVMNRAKKAGKSVGVVTTTRVQHASPAGTYAHTVNRNWYSDADVPASARQEGCQDIATQLISNMDIDVILGGGRKYMFRMGTPDPEYPDDYSQGGTRLDGKNLVQEWLAKRQGARYVWNRTELMQASLDPSVTHLMGLFEPGDMKYEIHRDSTLDPSLMEMTEAALRLLSRNPRGFFLFVEGGRIDHGHHESRAYRALTETIMFDDAIERAGQLTSEEDTLSLVTADHSHVFSFGGYPLRGSSIFGLAPGKARDRKAYTVLLYGNGPGYVLKDGARPDVTESESGSPEYRQQSAVPLDEETHAGEDVAVFARGPQAHLVHGVQEQTFIAHVMAFAACLEPYTACDLAPPAGTTD", "values": [
      {"measurement": "plasma residence time", "setting": "[5]", "value": "6 to 7", "unit": "days"},
      {"measurement": "half-life (T1/2) of clearance out of circulation", "setting": "[5]; pregnant women", "value": 170, "unit": "h"}
    ]}
  ]
}
